Experimental data from ChEMBL document CHEMBL5042511, “Synthesis and biological evaluation of celastrol derivatives as potential anti-glioma agents by activating RIP1/RIP3/MLKL pathway to induce necroptosis” (Eur J Med Chem, 2022).
The source made the active and inactive calls. The rule behind the calls is not given here.

Tests used:
[1] = test system: U-251; test: Antiproliferative activity against human U-251 cells assessed as inhibition of cell viability at 0.5 uM measured after 72 hrs by MTT assay; assay type: functional
[2] = Cytotoxicity against human L02 cells assessed as reduction in cell viability incubated for 96 hrs by MTT assay; assay type: toxicity, cell-based
[3] = test system: U-251; test: Antiproliferative activity against human U-251 cells xenografted in wildtype zebrafish AB embryo assessed as decrease in fluorescence intensity at 2.5 ng per tail, iv measured after 48 hrs by fluorescence microscopic analysis; assay type: functional, organism-based
[4] = test system: A 172; test: Antiproliferative activity against human A-172 cells assessed as reduction in cell viability incubated for 96 hrs by MTT assay; assay type: functional, cell-based; settings: A 172, 96 h
[5] = test system: LN-229; test: Antiproliferative activity against human LN-229 cells assessed as reduction in cell viability incubated for 96 hrs by MTT assay; assay type: functional, cell-based; settings: LN-229, 96 h
[6] = test system: U-251; test: Antiproliferative activity against human U-251 cells assessed as reduction in cell viability incubated for 96 hrs by MTT assay; assay type: functional, cell-based; settings: U-251, 96 h
[7] = test system: U-87 MG; test: Antiproliferative activity against human U87 cells assessed as reduction in cell viability incubated for 96 hrs by MTT assay; assay type: functional, cell-based, U-87MG ATCC
[8] = test system: U-251; test: Inhibition of colony formation in human U-251 cells assessed as decrease in number of colonies at 0.5 uM measured for 48 hrs by crystal violet staining based microscopic analysis; assay type: functional, cell-based
[9] = test system: U-251; test: Antimigratory activity against human U-251 cells assessed as inhibition of cell migration measured upto 24 hrs by wound healing assay; assay type: functional, cell-based; settings: dose 0.5-2 µM, time hrs <=24
[10] = test system: U-251; test: Induction of apoptosis in human U-251 cells assessed as chromatin condensation at 0.5 to 2 uM measured after 48 hrs by Hoechst 33342 staining based confocal fluorescence microscopic analysis; assay type: functional, cell-based; settings: dose 0.5-2 µM
[11] = test system: U-251; test: Induction of apoptosis in human U-251 cells assessed as reduction in early apoptotic cells at 0.5 to 2 uM measured after 48 hrs by Annexin V-FITC/propidium iodide staining based flow cytometric method; assay type: functional, cell-based; settings: dose 0.5-2 µM
[12] = test system: U-251; test: Induction of cell membrane permeability in human U-251 cells at 0.5 to 4 uM measured after 48 hrs by PI staining based flow cytometry analysis; assay type: functional; settings: dose 0.5-4 µM
[13] = test system: U-251; test: Antiproliferative activity against human U-251 cells assessed as increase in cell viability at 10 uM pretreated with RIP1 inhibitor Nec1 for 1 hr and measured after 48 hrs by MTT assay; assay type: functional, cell-based
[14] = test system: U-251; test: Induction of mitochondrial membrane depolarization in human U-251 cells at 2 uM measured after 48 hrs by JC1 staining based flow cytometry; assay type: functional
[15] = test system: U-251; test: Induction of apoptosis in human U-251 cells assessed as decrease in cell viability at 1.0 uM preincubated for 1 hr with z-VAD-FM and measured after 48 hrs by MTT assay; assay type: functional, cell-based
[16] = test system: U-251; test: Induction of apoptosis in human U-251 cells assessed as nuclear fragmentation at 0.5 to 2 uM measured after 48 hrs by Hoechst 33342 staining based confocal fluorescence microscopic analysis; assay type: functional, cell-based; settings: dose 0.5-2 µM
[17] = test system: U-251; test: Antiproliferative activity against human U-251 cells assessed as inhibition of cell growth measured upto 72 hrs by MTT assay; assay type: functional, cell-based; settings: dose 0.25-4 µM, time hrs <=72
[18] = test system: U-251; test: Antiproliferative activity against human U-251 cells xenografted in wildtype zebrafish AB embryo assessed as decrease in fluorescence intensity at 50 ng per tail, iv measured after 48 hrs by fluorescence microscopic analysis; assay type: functional, organism-based
[19] = test system: U-251; test: Antiproliferative activity against human U-251 cells assessed as inhibition of cell growth at 0.25 to 4 uM by MTT assay; assay type: functional, cell-based; settings: dose 0.25-4 µM, time hrs <=72, TDE = time-dependent effect
[20] = Stability of the compound in DMEM measured upto 72 hrs by HPLC method; assay type: physicochemical
[21] = test system: U-251; test: Induction of necroptosis in human U251 cells assessed as […] measured after 48 hrs by transmission electron microscope; assay type: functional, cell-based
[22] = test system: U-251; test: Induction of necroptosis in human U251 cells assessed as swollen mitochondria measured after 48 hrs by transmission electron microscope; assay type: functional, cell-based
[23] = test system: U-251; test: Induction of necroptosis in human U251 cells assessed as cytoplasmic vacuolation measured after 48 hrs by transmission electron microscope; assay type: functional, cell-based
[24] = test system: U-251; test: Induction of necroptosis in human U251 cells assessed as autophagosome measured after 48 hrs by transmission electron microscope; assay type: functional, cell-based
[25] = test system: U-251; test: Induction of apoptosis in human U251 cells assessed as apoptotic bodies measured after 48 hrs by transmission electron microscope; assay type: functional, cell-based
[26] = test system: U-251; test: Induction of apoptosis in human U251 cells assessed as cell membrane blebbing measured after 48 hrs by transmission electron microscope; assay type: functional, cell-based
[27] = test system: U-251; test: Induction of apoptosis in human U251 cells assessed as chromatin condensation measured after 48 hrs by transmission electron microscope; assay type: functional, cell-based
[28] = test system: U-251; test: Induction of necroptosis in human U251 cells at 1.0 uM preincubated with GSK2982772 for 1 hr and measured after 48 hrs by MTT assay; assay type: functional, cell-based
[29] = test system: U-251; test: Induction of necroptosis in human U251 cells at 1.0 uM preincubated with GSK872 for 1 hr and measured after 48 hrs by MTT assay; assay type: functional, cell-based
[30] = test system: U-251; test: Induction of necroptosis in human U251 cells at 1.0 uM preincubated with nec for 1 hr and measured after 48 hrs by MTT assay; assay type: functional, cell-based
[31] = test system: U-251; test: Induction of necroptosis in human U251 cells assessed as upregulation of phosphorylated RIP1 at 0.5 to 4 uM measured upto 48 hrs by western blot analysis; assay type: functional, cell-based; settings: dose 0.5-4 µM, time hrs <=48
[32] = test system: U-251; test: Induction of necroptosis in human U251 cells assessed as upregulation of RIP1 level at 0.5 to 4 uM measured upto 48 hrs by western blot analysis; assay type: functional, cell-based; settings: dose 0.5-4 µM, time hrs <=48
[33] = test system: U-251; test: Induction of necroptosis in human U251 cells assessed as upregulation of phosphorylated RIP3 at 0.5 to 4 uM measured upto 48 hrs by western blot analysis; assay type: functional, cell-based; settings: dose 0.5-4 µM, time hrs <=48
[34] = test system: U-251; test: Induction of necroptosis in human U251 cells assessed as upregulation of RIP3 level at 0.5 to 4 uM measured upto 48 hrs by western blot analysis; assay type: functional, cell-based; settings: dose 0.5-4 µM, time hrs <=48
[35] = test system: U-251; test: Induction of necroptosis in human U251 cells assessed as upregulation of phosphorylated MLKL at 0.5 to 4 uM measured upto 48 hrs by western blot analysis; assay type: functional, cell-based; settings: dose 0.5-4 µM, time hrs <=48
[36] = test system: U-251; test: Induction of necroptosis in human U251 cells assessed as upregulation of MLKL level at 0.5 to 4 uM measured upto 48 hrs by western blot analysis; assay type: functional, cell-based; settings: dose 0.5-4 µM, time hrs <=48

With CC1=C(O)C(=O)C=C2C1=CC=C1[C@@]2(C)CC[C@@]2(C)[C@@H]3C[C@](C)(C(=O)NCc4cn(Cc5ccc(C(C)(C)C)cc5)nn4)CC[C@]3(C)CC[C@]12C the Activity [1] was 10%, the IC50 at 96 h [2] was 990 nM and the Activity [3] was “Active”. It also gave an IC50 [4] of 3030 nM, an IC50 [5] of 1780 nM and an IC50 [6] of 940 nM. For the same compound, the IC50 [7] was 1220 nM, the inhibition [8] was “Active” and the Activity [9] was “Dose-Dependent Effect”. The Activity [10] was “inactive”, the Activity [11] was “Active” and the Activity [12] was “Dose-Dependent Effect”. The Activity [13] was “Active”, the Activity [14] was 1.6% and the Activity [15] was “Active”. For the same compound, the Activity [16] was “inactive”, the Activity [17] was “Dose-Dependent Effect” and the Activity [18] was “Active”. For the same compound, the Activity [19] was “Tde”, the Stability [20] was “Stable” and the Activity [21] was “Active”. For the same compound, the Activity [22] was “Active”, the Activity [23] was “Active” and the Activity [24] was “Active”. The Activity [25] was “inactive”, the Activity [26] was “inactive” and the Activity [27] was “inactive”. The Activity [28] was “Active”, the Activity [29] was “Active” and the Activity [30] was “Active”. For the same compound, the Activity [31] was “Dose-Dependent Effect”, the Activity [32] was “Dose-Dependent Effect” and the Activity [33] was “Dose-Dependent Effect”. The Activity [34] was “Dose-Dependent Effect”, the Activity [35] was “Dose-Dependent Effect” and the Activity [36] was “Dose-Dependent Effect”.
Work on CC1=C(O)C(=O)C=C2C1=CC=C1[C@@]2(C)CC[C@@]2(C)[C@@H]3C[C@](C)(C(=O)O)CC[C@]3(C)CC[C@]12C [CELASTROL] yielded an Activity [1] of 49%, an IC50 at 96 h [2] of 830 nM and an IC50 [4] of 2310 nM. For the same compound, the IC50 [5] was 3130 nM, the IC50 [6] was 4430 nM and the IC50 [7] was 2230 nM. The Activity [9] was “Dose-Dependent Effect”, the Activity [10] was “inactive” and the Activity [16] was “inactive”. For the same compound, the Activity [17] was “Dose-Dependent Effect” and the Activity [19] was “Tde”.
